Read-outs that look alike come from different tables or passages of the source.
What was measured:
intracellular MRSA = type: cell-based, Staphylococcus aureus; conditions: for z-scoreMRSA+ mean: mean of 3 replicates; for z-scoreMRSA+ rep 1 / %GFP+ rep 1: replicate 1; for z-scoreMRSA+ rep 2 / %GFP+ rep 2: replicate 2; for z-scoreMRSA+ rep 3 / %GFP+ rep 3: replicate 3; as to %GFP+ rep 1: test concentration or dose not given here; as to %GFP+ rep 2: test concentration or dose not given here; as to %GFP+ rep 3: test concentration or dose not given here; as to effect: test concentration or dose not given here; as to z-scoreMRSA+ mean: test concentration or dose not given here; as to z-scoreMRSA+ rep 1: test concentration or dose not given here; as to z-scoreMRSA+ rep 2: test concentration or dose not given here; as to z-scoreMRSA+ rep 3: test concentration or dose not given here
In short: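 Values are z-scores: GFP-positive HeLa percentage and event count per well against plate statistics, minus the mean DMSO z-score. Wells deviating two-fold from controls were left out of plate means. Infection was at a mean MOI of 6.8, with an overnight compound exposure.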

HeLa cells = experiment: Compound screen by flow cytometry: HeLa cell count as surrogate readout of cell viability (z-scoreHeLa); type: cell-based, human; conditions: for z-scoreHeLa mean: mean of 3 replicates; for z-scoreHeLa rep 1 / cell count rep 1: replicate 1; for z-scoreHeLa rep 2 / cell count rep 2: replicate 2; for z-scoreHeLa rep 3 / cell count rep 3: replicate 3; as to all read-outs here: test concentration or dose not given here
In short: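 The viability surrogate was the count of fixed HeLa cells by flow cytometry, converted to z-scores against DMSO controls with values deviating two-fold excluded. Before counting, cells had been infected with MRSA for 1 h and cleared of extracellular bacteria with gentamicin. They were then exposed overnight to kinase inhibitors in triplicate.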

[1] = PKIS compound screen, Yes/No call
[2] = PKIS compound screen, Yes/No call (effect without cell death)
[3] = PKIS compounds raw data, MRSA-infected HeLa cells
[4] = PKIS compounds raw data, HeLa cell count
[5] = PKIS compound screen raw data, MRSA-infected HeLa cells
[6] = Yes/No: effect without cell death
[7] = compound screen, MRSA-infected HeLa cells
[8] = PKIS compound screen raw data, HeLa cell count
[9] = compound screen, HeLa cell count

Q: Which effect (intracellular MRSA; [1]) does the source give for `Cn1cc(-c2ccc3c(c2)CCN3C(=O)Cc2cccc(F)c2)c2c(N)ncnc21` [GSK2603358A] here?
A: No

Q: What about the hit (intracellular MRSA; [2]) of the same molecule?
A: No

Q: And the “z-scoreMRSA+ mean” value (intracellular MRSA; PKIS compound screen)?
A: 0.42

Q: What about the “z-scoreMRSA+ rep 1” value (intracellular MRSA; PKIS compound screen) of the same molecule?
A: -0.03

Q: And the “z-scoreMRSA+ rep 2” value (intracellular MRSA; PKIS compound screen)?
A: 0.66

Q: And the “z-scoreMRSA+ rep 3” value (intracellular MRSA; PKIS compound screen)?
A: 0.62

Q: What about the “%GFP+ rep 1” value (intracellular MRSA; [3]) of the same molecule?
A: 26.9%

Q: What about the “%GFP+ rep 2” value (intracellular MRSA; [3]) of the same molecule?
A: 29.5%

Q: And the “%GFP+ rep 3” value (intracellular MRSA; [3])?
A: 30.6%

Q: What about the cell death (HeLa cells; [1]) of the same molecule?
A: No

Q: And the z-scoreHeLa mean (HeLa cells; PKIS compound screen)?
A: 0.76

Q: What about the “z-scoreHeLa rep 1” value (HeLa cells; PKIS compound screen) of the same molecule?
A: -0.12

Q: What about the “z-scoreHeLa rep 2” value (HeLa cells; PKIS compound screen) of the same molecule?
A: 0.60

Q: What about the “z-scoreHeLa rep 3” value (HeLa cells; PKIS compound screen) of the same molecule?
A: 1.79

Q: What about the “cell count rep 1” value (HeLa cells; [4]) of the same molecule?
A: 5847

Q: And the “cell count rep 2” value (HeLa cells; [4])?
A: 6919

Q: And the “cell count rep 3” value (HeLa cells; [4])?
A: 8427

Q: Which results are given for `Cn1cc(-c2ccc3c(c2)CCN3C(=O)Cc2ccccc2Cl)c2c(N)ncnc21` [GSK2608885A]?
A: effect (intracellular MRSA; [1]): No; hit (intracellular MRSA; [2]): No; z-scoreMRSA+ mean (intracellular MRSA; PKIS compound screen): 0.34; z-scoreMRSA+ rep 1 (intracellular MRSA; PKIS compound screen): 0.11; z-scoreMRSA+ rep 2 (intracellular MRSA; PKIS compound screen): 0.57; z-scoreMRSA+ rep 3 (intracellular MRSA; PKIS compound screen): 0.34; %GFP+ rep 1 (intracellular MRSA; [3]): 27.6%; %GFP+ rep 2 (intracellular MRSA; [3]): 29.0%; %GFP+ rep 3 (intracellular MRSA; [3]): 29.1%; cell death (HeLa cells; [1]): No; z-scoreHeLa mean (HeLa cells; PKIS compound screen): -0.08; z-scoreHeLa rep 1 (HeLa cells; PKIS compound screen): -0.13; z-scoreHeLa rep 2 (HeLa cells; PKIS compound screen): 0.00891; z-scoreHeLa rep 3 (HeLa cells; PKIS compound screen): -0.13; cell count rep 1 (HeLa cells; [4]): 5830; cell count rep 2 (HeLa cells; [4]): 6021; cell count rep 3 (HeLa cells; [4]): 5398

Q: With `COc1cccc(CC(=O)N2CCc3cc(-c4cn(C)c5ncnc(N)c45)ccc32)c1` [GSK2608899A] as the molecule, how does the “%GFP+ rep 1” value (intracellular MRSA; [5]) read?
A: 26.6%

Q: And the “%GFP+ rep 2” value (intracellular MRSA; [5])?
A: 25.5%

Q: And the “%GFP+ rep 3” value (intracellular MRSA; [5])?
A: 23.7%

Q: And the effect (intracellular MRSA; Yes/No call from z-scoreMRSA+)?
A: No

Q: What about the hit (intracellular MRSA; [6]) of the same molecule?
A: No

Q: What about the “z-scoreMRSA+ mean” value (intracellular MRSA; [7]) of the same molecule?
A: 0.49

Q: And the “z-scoreMRSA+ rep 1” value (intracellular MRSA; [7])?
A: 0.31

Q: What about the “z-scoreMRSA+ rep 2” value (intracellular MRSA; [7]) of the same molecule?
A: 0.70

Q: And the “z-scoreMRSA+ rep 3” value (intracellular MRSA; [7])?
A: 0.45

Q: What about the “cell count rep 1” value (HeLa cells; [8]) of the same molecule?
A: 3096

Q: What about the “cell count rep 2” value (HeLa cells; [8]) of the same molecule?
A: 2695

Q: What about the “cell count rep 3” value (HeLa cells; [8]) of the same molecule?
A: 3225

Q: And the cell death (HeLa cells; Yes/No call from z-scoreHeLa)?
A: No

Q: What about the z-scoreHeLa mean (HeLa cells; [9]) of the same molecule?
A: -1.14

Q: And the “z-scoreHeLa rep 1” value (HeLa cells; [9])?
A: -0.91

Q: And the “z-scoreHeLa rep 2” value (HeLa cells; [9])?
A: -1.24

Q: What about the “z-scoreHeLa rep 3” value (HeLa cells; [9]) of the same molecule?
A: -1.27

Q: With `Cn1cc(-c2ccc3c(c2)CCN3C(=O)Cc2cc(F)cc(F)c2F)c2c(N)ncnc21` [GSK2634140A] as the molecule, how does the “%GFP+ rep 1” value (intracellular MRSA; [5]) read?
A: 26.0%

Q: And the “%GFP+ rep 2” value (intracellular MRSA; [5])?
A: 26.7%

Q: What about the “%GFP+ rep 3” value (intracellular MRSA; [5]) of the same molecule?
A: 24.3%

Q: And the effect (intracellular MRSA; Yes/No call from z-scoreMRSA+)?
A: No

Q: What about the hit (intracellular MRSA; [6]) of the same molecule?
A: No

Q: What about the “z-scoreMRSA+ mean” value (intracellular MRSA; [7]) of the same molecule?
A: 0.60

Q: And the “z-scoreMRSA+ rep 1” value (intracellular MRSA; [7])?
A: 0.17

Q: What about the “z-scoreMRSA+ rep 2” value (intracellular MRSA; [7]) of the same molecule?
A: 0.99

Q: What about the “z-scoreMRSA+ rep 3” value (intracellular MRSA; [7]) of the same molecule?
A: 0.63

Q: And the “cell count rep 1” value (HeLa cells; [8])?
A: 2359

Q: What about the “cell count rep 2” value (HeLa cells; [8]) of the same molecule?
A: 2548

Q: What about the “cell count rep 3” value (HeLa cells; [8]) of the same molecule?
A: 2693

Q: What about the cell death (HeLa cells; Yes/No call from z-scoreHeLa) of the same molecule?
A: No

Q: What about the z-scoreHeLa mean (HeLa cells; [9]) of the same molecule?
A: -1.47

Q: And the “z-scoreHeLa rep 1” value (HeLa cells; [9])?
A: -1.44

Q: What about the “z-scoreHeLa rep 2” value (HeLa cells; [9]) of the same molecule?
A: -1.35

Q: And the “z-scoreHeLa rep 3” value (HeLa cells; [9])?
A: -1.61

Q: `Cn1cc(-c2ccc3c(c2)CCN3C(=O)Cc2cc(F)cc(C(F)(F)F)c2)c2c(N)ncnc21` [GSK2635225A] was tested. Which “%GFP+ rep 1” value (intracellular MRSA; [5]) did it give?
A: 22.6%

Q: What about the “%GFP+ rep 2” value (intracellular MRSA; [5]) of the same molecule?
A: 22.9%

Q: What about the “%GFP+ rep 3” value (intracellular MRSA; [5]) of the same molecule?
A: 20.1%

Q: What about the effect (intracellular MRSA; Yes/No call from z-scoreMRSA+) of the same molecule?
A: No

Q: What about the hit (intracellular MRSA; [6]) of the same molecule?
A: No

Q: What about the “z-scoreMRSA+ mean” value (intracellular MRSA; [7]) of the same molecule?
A: -0.39

Q: And the “z-scoreMRSA+ rep 1” value (intracellular MRSA; [7])?
A: -0.62

Q: What about the “z-scoreMRSA+ rep 2” value (intracellular MRSA; [7]) of the same molecule?
A: 0.07

Q: What about the “z-scoreMRSA+ rep 3” value (intracellular MRSA; [7]) of the same molecule?
A: -0.63

Q: What about the “cell count rep 1” value (HeLa cells; [8]) of the same molecule?
A: 4783

Q: What about the “cell count rep 2” value (HeLa cells; [8]) of the same molecule?
A: 4290

Q: What about the “cell count rep 3” value (HeLa cells; [8]) of the same molecule?
A: 4665

Q: What about the cell death (HeLa cells; Yes/No call from z-scoreHeLa) of the same molecule?
A: No

Q: What about the z-scoreHeLa mean (HeLa cells; [9]) of the same molecule?
A: -0.02

Q: What about the “z-scoreHeLa rep 1” value (HeLa cells; [9]) of the same molecule?
A: 0.31

Q: And the “z-scoreHeLa rep 2” value (HeLa cells; [9])?
A: -0.0088

Q: What about the “z-scoreHeLa rep 3” value (HeLa cells; [9]) of the same molecule?
A: -0.36

Q: What does the source list for `c1ccc(Cn2ncc3cc(Nc4ncnc5ccccc45)ccc32)cc1` [GW273749A]?
A: effect (intracellular MRSA; [1]): No; hit (intracellular MRSA; [2]): No; z-scoreMRSA+ mean (intracellular MRSA; PKIS compound screen): 0.17; z-scoreMRSA+ rep 1 (intracellular MRSA; PKIS compound screen): -0.11; z-scoreMRSA+ rep 2 (intracellular MRSA; PKIS compound screen): 0.34; z-scoreMRSA+ rep 3 (intracellular MRSA; PKIS compound screen): 0.28; %GFP+ rep 1 (intracellular MRSA; [3]): 26.5%; %GFP+ rep 2 (intracellular MRSA; [3]): 27.8%; %GFP+ rep 3 (intracellular MRSA; [3]): 28.8%; cell death (HeLa cells; [1]): No; z-scoreHeLa mean (HeLa cells; PKIS compound screen): 1.74; z-scoreHeLa rep 1 (HeLa cells; PKIS compound screen): 1.98; z-scoreHeLa rep 2 (HeLa cells; PKIS compound screen): 1.42; z-scoreHeLa rep 3 (HeLa cells; PKIS compound screen): 1.82; cell count rep 1 (HeLa cells; [4]): 9337; cell count rep 2 (HeLa cells; [4]): 8148; cell count rep 3 (HeLa cells; [4]): 8467
